Reference: patent publication US20100022491A1, “4-HYDROXY-2-OXO-2,3-DIHYDRO-1,3-BENZOTHIAZOL-7YL COMPOUNDS FOR MODULATION OF B2-ADRENORECEPTOR ACTIVITY” (ASTRAZENECA AB, priority 2006, published 2010)
Where a name gives a salt, the structure may show the parent alone.

Biological target: T1, Adrenergic β2 (Homo sapiens, UniProt P07550)
T1 construct: Adherent H292 cells were removed from tissue culture flasks; endogenous in cells; host or cells: H292 cells
Test: Adrenergic β2 mediated cAMP production in H292 cells
Format: cell-based
Settings: for EC50: read-out: β2 pEC50 (converted); for β2 Int Act: Intrinsic Activity as a fraction relative to the maximum activity determined for formoterol
Summary of the method: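 cAMP accumulation in adherent H292 cells, measured by AlphaScreen and calibrated with cAMP standards. Compounds incubated 60 min at room temperature after 10 min rolipram (final 300 μM; vehicle 1.6% DMSO). pEC50 and intrinsic activity, as a fraction of formoterol's maximum, from four-parameter logistic fit.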

[1] = H292 cells, cAMP by AlphaScreen, 60 minutes at room temperature, rolipram 300 μM

T1 sequence (P07550 whole entry): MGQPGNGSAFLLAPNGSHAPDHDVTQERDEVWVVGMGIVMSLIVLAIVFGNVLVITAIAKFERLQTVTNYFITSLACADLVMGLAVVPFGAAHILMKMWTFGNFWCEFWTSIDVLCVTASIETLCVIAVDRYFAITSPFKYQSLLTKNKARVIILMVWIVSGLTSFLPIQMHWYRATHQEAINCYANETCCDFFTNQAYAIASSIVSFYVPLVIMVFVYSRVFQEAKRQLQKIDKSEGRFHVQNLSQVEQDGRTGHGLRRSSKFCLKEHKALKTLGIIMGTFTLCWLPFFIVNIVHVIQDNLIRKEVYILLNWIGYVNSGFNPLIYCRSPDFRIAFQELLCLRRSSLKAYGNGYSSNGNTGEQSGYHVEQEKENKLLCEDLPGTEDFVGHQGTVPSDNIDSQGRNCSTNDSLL

Compound	EC50 [1] [nM]	β2 Int Act	β2 pEC50 [1]
O=C(CCNCCc1cccc(Cl)c1)N(CCNCCc1ccc(O)c2[nH]c(=O)sc12)C1CCCCC1 [Example 12, N^3-[2-(3-Chlorophenyl)ethyl]-N-cyclohexyl-N-(2-{[2-(4-hydroxy-2-oxo-2,3-dihydro-1,3-benzothiazol-7-yl)ethyl]amino}ethyl)-β-alaninamide bis-trifluoroacetic acid salt]	2.51	0.87	–
O=C(CCNCCc1ccccc1)N(CCNCCc1ccc(O)c2[nH]c(=O)sc12)C1CCCC1 [Example 2, N-Cyclopentyl-N-(2-{[2-(4-hydroxy-2-oxo-2,3-dihydro-1,3-benzothiazol-7-yl)ethyl]amino}ethyl)-N^3-(2-phenylethyl)-β-alaninamide bis-trifluoroacetic acid salt]	3.16	1.04	–
O=C(CCNCCc1cccc(Cl)c1)N(CCNCCc1ccc(O)c2[nH]c(=O)sc12)C1CCCC1 [Example 30, N^3-[2-(3-Chlorophenyl)ethyl]-N-cyclopentyl-N-(2-{[2-(4-hydroxy-2-oxo-2,3-dihydro-1,3-benzothiazol-7-yl)ethyl]amino}ethyl)-β-alaninamide bis-trifluoroacetic acid salt]	5.01	0.96	–
Cc1cccc(CCNCCC(=O)N(CCNCCc2ccc(O)c3[nH]c(=O)sc23)C2CCOCC2)c1 [Example 25, N-(2-{[2-(4-Hydroxy-2-oxo-2,3-dihydro-1,3-benzothiazol-7-yl)ethyl]amino}ethyl)-N^3-[2-(3-methylphenyl)ethyl]-N-(tetrahydro-2H-pyran-4-yl)-β-alaninamide bis-trifluoroacetic acid salt]	7.94	1.05	–
COc1cccc(CCNCCC(=O)N(CCNCCc2ccc(O)c3[nH]c(=O)sc23)CC(C)(C)C)c1 [Example 43, N^1-(2,2-Dimethylpropyl)-N^1-(2-{[2-(4-hydroxy-2-oxo-2,3-dihydro-1,3-benzothiazol-7-yl)ethyl]amino}ethyl)-N^3-[2-(3-methoxyphenyl)ethyl]-β-alaninamide bis-trifluoroacetic acid salt]	10	0.67	–
CC(C)(C)CN(CCNCCc1ccc(O)c2[nH]c(=O)sc12)C(=O)CCNCCc1ccccc1 [Example 6, N-(2,2-Dimethylpropyl)-N-(2-{[2-(4-hydroxy-2-oxo-2,3-dihydro-1,3-benzothiazol-7-yl)ethyl]amino}ethyl)-N^3-(2-phenylethyl)-β-alaninamide bis-trifluoroacetic acid salt]	2	0.89	–
O=C(CCNCCc1ccccc1Cl)N(CCNCCc1ccc(O)c2[nH]c(=O)sc12)C1CCCC1 [Example 29, N^3-[2-(2-Chlorophenyl)ethyl]-N-cyclopentyl-N-(2-{[2-(4-hydroxy-2-oxo-2,3-dihydro-1,3-benzothiazol-7-yl)ethyl]amino}ethyl)-β-alaninamide bis-trifluoroacetic acid salt]	3.98	0.97	–
Cc1ccccc1CCNCCC(=O)N(CCNCCc1ccc(O)c2[nH]c(=O)sc12)C1CCOCC1 [Example 27, N-(2-{[2-(4-Hydroxy-2-oxo-2,3-dihydro-1,3-benzothiazol-7-yl)ethyl]amino}ethyl)-N^3-[2-(2-methylphenyl)ethyl]-N-(tetrahydro-2H-pyran-4-yl)-β-alaninamide bis-trifluoroacetic acid salt]	10	0.95	–
O=C(CCNCCc1cc(F)cc(F)c1)N(CCNCCc1ccc(O)c2[nH]c(=O)sc12)C1CCCCC1 [Example 78, N^1-Cyclohexyl-N^3-[2-(3,5-difluorophenyl)ethyl]-N^1-(2-{[2-(4-hydroxy-2-oxo-2,3-dihydro-1,3-benzothiazol-7-yl)ethyl]amino}ethyl)-β-alaninamide bis-trifluoroacetic acid salt]	3.16	0.91	–
O=C(CCNCCc1ccc(Cl)cc1)N(CCNCCc1ccc(O)c2[nH]c(=O)sc12)C1CCCC1 [Example 28, N^3-[2-(4-Chlorophenyl)ethyl]-N-cyclopentyl-N-(2-{[2-(4-hydroxy-2-oxo-2,3-dihydro-1,3-benzothiazol-7-yl)ethyl]amino}ethyl)-β-alaninamide bis-trifluoroacetic acid salt]	10	0.87	–
O=C(CCNCCc1cccc(O)c1)N(CCNCCc1ccc(O)c2[nH]c(=O)sc12)C1CCCCCC1 [Example 37, N-Cycloheptyl-N-(2-{[2-(4-hydroxy-2-oxo-2,3-dihydro-1,3-benzothiazol-7-yl)ethyl]amino}ethyl)-N^3-[2-(3-hydroxyphenyl)ethyl]-β-alaninamide bis-trifluoroacetic acid salt]	1	0.91	–
O=C(CCNCCc1cc(F)cc(F)c1)N(CCNCCc1ccc(O)c2[nH]c(=O)sc12)C1CCCCC1 [Example 92, N-Cyclohexyl-N^3-[2-(3,5-difluorophenyl)ethyl]-N-(2-{[2-(4-hydroxy-2-oxo-2,3-dihydro-1,3-benzothiazol-7-yl)ethyl]amino}ethyl)-β-alaninamide dihydrobromide salt]	–	–	8.5

More lines, main results first:

EC50 [1] [nM]	β2 Int Act	Compound	β2 pEC50 [1]
6.31	0.87	O=C(CCNCCc1ccccc1)N(CCNCCc1ccc(O)c2[nH]c(=O)sc12)C1CCSCC1 [Example 62, N-(2-{[2-(4-Hydroxy-2-oxo-2,3-dihydro-1,3-benzothiazol-7-yl)ethyl]amino}ethyl)-N^3-(2-phenylethyl)-N^1-(tetrahydro-2H-thiopyran-4-yl)-β-alaninamide bis-trifluoroacetic acid salt]	–
79.4	0.93	CCCC(CCC)N(CCNCCc1ccc(O)c2[nH]c(=O)sc12)C(=O)CCNCCc1cccc(F)c1 [Example 63, N^3-[2-(3-Fluorophenyl)ethyl]-N^1-(2-{[2-(4-hydroxy-2-oxo-2,3-dihydro-1,3-benzothiazol-7-yl)ethyl]amino}ethyl)-N^1-(1-propylbutyl)-β-alaninamide bis-trifluoroacetic acid salt]	–
25.1	0.55	CC(C)(CN(CCNCCc1ccc(O)c2[nH]c(=O)sc12)C(=O)CCNCCc1ccccc1)c1ccccc1 [Example 45, N^1-(2-{[2-(4-Hydroxy-2-oxo-2,3-dihydro-1,3-benzothiazol-7-yl)ethyl]amino}ethyl)-N^1-(2-methyl-2-phenylpropyl)-N^3-(2-phenylethyl)-β-alaninamide bis-trifluoroacetic acid salt]	–
1.26	0.91	O=C(CCNCCc1cccc(Cl)c1)N(CCNCCc1ccc(O)c2[nH]c(=O)sc12)C1CCCCCC1 [Example 50, N^3-[2-(3-Chlorophenyl)ethyl]-N^1-cycloheptyl-N^1-(2-{[2-(4-hydroxy-2-oxo-2,3-dihydro-1,3-benzothiazol-7-yl)ethyl]amino}ethyl)-β-alaninamide bis-trifluoroacetic acid salt]	–
3.16	0.78	O=C(CCNCCc1ccccc1Cl)N(CCNCCc1ccc(O)c2[nH]c(=O)sc12)C1CCC(F)(F)CC1 [Example 46, N^3-[2-(2-Chlorophenyl)ethyl]-N^1-(4,4-difluorocyclohexyl)-N^1-(2-{[2-(4-hydroxy-2-oxo-2,3-dihydro-1,3-benzothiazol-7-yl)ethyl]amino}ethyl)-β-alaninamide bis-trifluoroacetic acid salt]	–
10	0.68	COc1ccc(CCNCCC(=O)N(CCNCCc2ccc(O)c3[nH]c(=O)sc23)C2CCCCC2)cc1 [Example 68, N^1-Cyclohexyl-N^1-(2-{[2-(4-hydroxy-2-oxo-2,3-dihydro-1,3-benzothiazol-7-yl)ethyl]amino}ethyl)-N^3-[2-(4-methoxyphenyl)ethyl]-β-alaninamide bis-trifluoroacetic acid salt]	–
12.6	0.59	CC(C)(CO)CN(CCNCCc1ccc(O)c2[nH]c(=O)sc12)C(=O)CCNCCc1ccccc1Cl [Example 65, N^3-[2-(2-Chlorophenyl)ethyl]-N^1-(3-hydroxy-2,2-dimethylpropyl)-N^1-(2-{[2-(4-hydroxy-2-oxo-2,3-dihydro-1,3-benzothiazol-7-yl)ethyl]amino}ethyl)-β-alaninamide bis-trifluoroacetic acid salt]	–
5.01	0.81	CC(CN(C(=O)CCNCCc1cccc(F)c1)C1CCCCCC1)NCCc1ccc(O)c2[nH]c(=O)sc12 (stereo not drawn) [Example 104, N-Cycloheptyl-N^3-[2-(3-fluorophenyl)ethyl]-N-(2-{[2-(4-hydroxy-2-oxo-2,3-dihydro-1,3-benzothiazol-7-yl)ethyl]amino}propyl)-β-alaninamide bis-trifluoroacetic acid salt]	–
5.01	0.86	O=C(CCNCCc1cccc(F)c1F)N(CCNCCc1ccc(O)c2[nH]c(=O)sc12)C1CCCCCC1 [Example 56, N^1-Cycloheptyl-N^3-[2-(2,3-difluorophenyl)ethyl]-N^1-(2-{[2-(4-hydroxy-2-oxo-2,3-dihydro-1,3-benzothiazol-7-yl)ethyl]amino}ethyl)-β-alaninamide bis-trifluoroacetic acid salt]	–
20	0.89	O=C(CCNCCc1c(F)cccc1F)N(CCNCCc1ccc(O)c2[nH]c(=O)sc12)C1CCCCCC1 [Example 84, N^1-Cycloheptyl-N^3-[2-(2,6-difluorophenyl)ethyl]-N^1-(2-{[2-(4-hydroxy-2-oxo-2,3-dihydro-1,3-benzothiazol-7-yl)ethyl]amino}ethyl)-β-alaninamide bis-trifluoroacetic acid salt]	–
79.4	0.86	O=C(CCNCCc1cccc(C(F)(F)F)c1)N(CCNCCc1ccc(O)c2[nH]c(=O)sc12)C1CCCCCC1 [Example 82, N^1-Cycloheptyl-N^1-(2-{[2-(4-hydroxy-2-oxo-2,3-dihydro-1,3-benzothiazol-7-yl)ethyl]amino}ethyl)-N^3-{2-[3-(trifluoromethyl)phenyl]ethyl}-β-alaninamide bis-trifluoroacetic acid salt]	–
